Test results published in US20060194293A1, “Rb1 gene induced protein (rb1cc1) and gene” (Tokuhiro CHANO, priority 2003, published 2006).
“Also recorded” adds a separate entry of the source.

What was measured:
Format in all cases: cell-based, human
[1] = system: U-2/DOXO 35 cells; assay: Cell proliferation under doxorubicin treatment, MDR1 gene-introduced cells; details: U-2/DOXO 35 (MDR1 gene introduced), 450 ng/mL doxorubicin
Description: (§1) The effect on cell proliferation in the presence of 450 ng/mL of the anticancer agent doxorubicin was examined.

[2] = system: RB1CC1 gene; assay: Northern blot of RB1CC1 gene expression after doxorubicin, parental U-2 OS cells; details: doxorubicin treatment, over time
Description: (§2) Expression levels of RB1CC1 gene and MDR1 gene in parental U2 OS cells and several kinds of MDR-variant cells were analyzed by Northern blotting. A probe hybridizing between nucleotide numbers 4190 and 4654 of the RB1CC1 gene sequence was used as a probe for analysis of RB1CC1 gene, and a probe hybridizing between nucleotide numbers 834 and 1119 of MDR1 gene was used for MDR1 gene. Probes were used after labeling with α-32P-dCTP in which phosphorus at an alpha position of […] was substituted with a radioactive isotope. Glyceraldehyde-3-phosphate dehydrogenase (GAPDH) was used as the indicator of mRNA expression.
(§3) mRNA expression levels of cells that were obtained over time in the above-mentioned experiment were analyzed. Analysis was conducted for the novel gene RB1CC1 gene of the present invention, the RB1 gene and the MDR1 gene, respectively, in the same manner as Example 3 with the exception that expression levels of the RB1 gene were detected using a probe hybridizing to the site at nucleotides 336 to 675 of the nucleotide sequence of human RB1 mRNA. […] In contrast, in MDR variants of U-2 OS cells (U-2 OS/DX580) and U-2 OS cells introduced with MDR1 gene (U-2/DOXO 35), expression level of RB1CC1 gene was not inhibited by treatment with doxorubicin, and expression of RB1CC1 gene increased. […]

[3] = system: U-2 OS/DX580 cells; assay: Cell proliferation under doxorubicin treatment, MDR variant cells; details: U-2 OS/DX580 MDR variants, 450 ng/mL doxorubicin
Description: as §1

[4] = system: U-2 OS cells; assay: Cell proliferation under doxorubicin treatment, parental cells; details: parental U-2 OS cells
Description: as §1

[5] = system: RB1CC1 gene; assay: Northern blot of RB1CC1 gene expression after doxorubicin, U-2/Neo8 cells; details: U-2/Neo8 control cells, doxorubicin treatment, over time
Description: as §2, §3

[6] = system: U-2/Neo8 cells; assay: Cell proliferation under doxorubicin treatment, control gene-introduced cells; details: U-2/Neo8 control cells
Description: as §1

[7] = system: RB1CC1 gene; assay: Northern blot of RB1CC1 gene expression after doxorubicin, U-2 OS/DX580 cells; details: U-2 OS/DX580 MDR variants, doxorubicin treatment
Description: as §2, §3

[8] = system: RB1CC1 gene; assay: Northern blot of RB1CC1 gene expression after doxorubicin, U-2/DOXO 35 cells; details: U-2/DOXO 35 (MDR1 gene introduced), doxorubicin treatment
Description: as §2, §3

**Q.** For `COc1cccc2c1C(=O)c1c(O)c3c(c(O)c1C2=O)C[C@@](O)(C(=O)CO)C[C@@H]3O[C@H]1C[C@H](N)[C@H](O)[C@H](C)O1` [doxorubicin], which “effect on cell proliferation” value [1] is on record?
**A.** had no effect

**Q.** What about the “expression of the RB1CC1 gene (mRNA)” value [2] of the same molecule?
**A.** lowered expression; also recorded: decreased over time

**Q.** And the “effect on cell proliferation” value [3]?
**A.** did not exhibit an inhibitory effect; also recorded: had no effect

**Q.** And the “effect on cell proliferation” value ([4]; 450 ng/mL doxorubicin)?
**A.** suppressed

**Q.** And the cell death ([4]; doxorubicin treatment)?
**A.** induced cell death

**Q.** What about the “expression of the RB1CC1 gene (mRNA)” value [5] of the same molecule?
**A.** lowered expression; also recorded: decreased over time

**Q.** What about the “effect on cell proliferation” value ([6]; 450 ng/mL doxorubicin) of the same molecule?
**A.** suppressed

**Q.** What about the cell death ([6]; doxorubicin treatment) of the same molecule?
**A.** induced cell death

**Q.** And the “expression of the RB1CC1 gene (mRNA)” value [7]?
**A.** did not exhibit an inhibitory effect; also recorded: not inhibited

**Q.** What about the “expression of the RB1CC1 gene (mRNA)” value [8] of the same molecule?
**A.** increased; also recorded: not inhibited
